# Results published in patent US11045480B2, “Anti-huLRRC15 antibody drug conjugates and methods for their use” (AbbVie Inc., priority 2015, dated 2021).
# T1: huLRRC15 (Homo sapiens, UniProt Q8TF66)
# T1 construct: endogenous in cells; host or cells: U118MG glioblastoma cells
# T1 sequence (Q8TF66 22-581): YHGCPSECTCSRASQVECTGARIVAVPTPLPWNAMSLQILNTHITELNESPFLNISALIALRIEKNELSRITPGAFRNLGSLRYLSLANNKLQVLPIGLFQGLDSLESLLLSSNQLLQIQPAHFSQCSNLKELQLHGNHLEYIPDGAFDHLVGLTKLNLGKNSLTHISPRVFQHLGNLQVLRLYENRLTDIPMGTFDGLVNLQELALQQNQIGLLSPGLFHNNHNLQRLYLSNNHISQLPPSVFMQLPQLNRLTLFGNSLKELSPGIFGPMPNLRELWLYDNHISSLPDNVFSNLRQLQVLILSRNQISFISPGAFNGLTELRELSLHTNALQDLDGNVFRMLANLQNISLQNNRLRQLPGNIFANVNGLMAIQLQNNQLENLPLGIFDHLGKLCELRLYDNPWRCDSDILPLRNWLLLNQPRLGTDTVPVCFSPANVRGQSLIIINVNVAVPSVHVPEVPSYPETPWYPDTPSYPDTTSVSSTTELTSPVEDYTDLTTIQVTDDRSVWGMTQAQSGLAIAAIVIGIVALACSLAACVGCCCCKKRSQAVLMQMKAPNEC
# B1: muAD209.9.1: murine anti-huLRRC15 antibody; VH SEQ ID NO:76, VL SEQ ID NO:77 (antibody, V domains shown)
# VH: QIQLVQSGPELKKPGETVKISCKASGFAITNFGMNWVKQAPGKGLKWMGWINLYTGEPTFADDFKGRFAFSLETSASTAYLQINNLKNEDTVIYFCARKGETYYRYDGFAYWGQGTLVTVSA
# VL: DIVMTQAAPSVPVTPGESVSISCRSSKSLLHSNGNTHLYWFLQRPGQSPQLLIYRMSNLASGVPDRFSGSGSGTAFTLRISRVEAEDVGVYYCMQLLEYPYTFGGGTKLEIE
# B2: huAD208.4.1-PBD-DAR2: PBD synthon vaPBD conjugated with anti-huLRRC15 antibody huAD208.4.1 to yield a DAR of 2 (conjugate)
# VH: EVQLVQSGAEVKKPGSSVKVSCKASGFTFTDYYIHWVKQAPGQGLEWIGLVYPYIGGTNYNQKFKGKATLTVDTSTTTAYMEMSSLRSEDTAVYYCARGDNKYDAMDYWGQGTTVTVSS
# VL: DIVLTQSPDSLAVSLGERATINCRASQSVSTSSYSYMHWYQQKPGQPPKLLIKYASSLESGVPDRFSGSGSGTDFTLTISSLQAEDVAVYYCEQSWEIRTFGGGTKVEIK
# Columns and labels:
# [1] = test system: EBC-1 (human squamous NSCLC) xenograft; experiment: EBC-1 xenograft tumor growth; type: in vivo, mouse
# Method: For the experiments, five million cells (EBC-1) that were grown in vitro were inoculated subcutaneously per mouse into the right flank of female SCID-Beige mice. Tumors were size matched at ˜200 mm^3, and dosed intraperitoneally (IP) Q4D×6 (1 dose given every 4 days for a total of 6 doses) as shown in FIG. 13A. Measurements of the length (L) and width (W) of the tumors were taken via electronic caliper and the volume was calculated according to the following equation: V=L×W^2/2.
# For this experiment, tumors were size matched at ˜200 mm^3, and dosed intraperitoneally (IP) Q7D×2 (1 dose given every 7 days for a total of 2 doses) as shown in FIG. 13C. […]
# 5 million cells were implanted subcutaneously into SCID/Beige mice, and mice were randomized when tumor group mean volumes reached ˜200 mm^3.
# In FIG. 20C, EBC1 cells (5 million) were implanted subcutaneously into SCID/Beige mice and mice were randomized when the tumors reached ˜200 mm^3 and dosed with biologics at 6 mg/kg intraperitoneally on a Q7D×2 (one dose given every 7 days for a total of 2 doses), while erlotinib was dosed orally daily for 10 days at 50 mg/kg, and carboplatin was dosed intraperitoneally Q4D×3 (one dose given every 4 days for a total of 3 doses) at 50 mg/kg.
# In FIG. 21B, EBC-1 squamous NSCLC cells (5 million) were implanted subcutaneously into SCID/Beige mice, and mice were randomized when the tumors reached ˜200 mm^3 and dosed with biologics at 6 mg/kg intraperitoneally on a Q7D×2 (one dose given every 7 days for a total of 2 doses), while gemcitabine was dosed intraperitoneally at 100 mg/kg (Q3D×3) (one dose given every three days for 3 doses total).
# [2] = test system: HPAF-II (human pancreatic) xenograft; experiment: HPAF-II xenograft tumor growth; type: in vivo, mouse; settings: SCID mice, biologics 6 mg/kg IP Q4D×6, gemcitabine 100 mg/kg IP (Q3D×4)×2 (FIG. 21A)
# Method: For the experiment, 1 million cells (HPAF-II) that were grown in vitro were inoculated subcutaneously per mouse into the right flank of female SCID-Beige mice. Tumors were size matched at ˜200 mm^3, and dosed intraperitoneally (IP) Q4D×6 (1 dose given every 4 days for a total of 6 doses) as shown in FIG. 13B.
# In FIG. 21A, HPAF-II pancreatic cancer cells (1 million) were implanted subcutaneously into SCID mice, and mice were randomized when the tumors reached ˜200 mm^3 and dosed with biologics at 6 mg/kg intraperitoneally on a Q4D×6 (one dose given every 4 days for a total of 6 doses), while gemcitabine was dosed intraperitoneally at 100 mg/kg (Q3D×4)×2 (one dose given every three days for 4 doses per cycle, 2 cycles with 8 total doses given).
# [3] = test system: PANC1 (pancreatic) xenograft; experiment: PANC1 xenograft tumor growth; type: in vivo, mouse; settings: PANC1, SCID mice; biologics 12 mg/kg IP Q4D×6; gemcitabine 100 mg/kg IP Q3D×4 (FIG. 20E)
# Method: In FIG. 20E, PANC1 pancreatic cancer cells (10 million) were implanted subcutaneously into SCID mice, and mice were randomized when the tumors reached ˜125 mm^3 and dosed with biologics at 12 mg/kg intraperitoneally on a Q4D×6 (one dose given every 4 days for a total of 6 doses), while gemcitabine was dosed intraperitoneally at 100 mg/kg Q3D×4) (one dose given every three days for 4 doses total).
# [4] = test system: NW231 breast cancer xenograft; experiment: NW231 xenograft tumor growth; type: in vivo, mouse; settings: NW231, SCID mice; biologics 12 mg/kg IP Q4D×6; doxorubicin 1 mg/kg IV days 0, 4, 8, 13, 18 (FIG. 20D)
# Method: In FIG. 20D, NW231 breast cancer cells (10 million) were implanted subcutaneously into SCID mice, and mice were randomized when the tumors reached ˜150 mm^3 and dosed with biologics at 12 mg/kg intraperitoneally on a Q4D×6 (one dose given every 4 days for a total of 6 doses), while doxorubicin was dosed intravenously at 1 mg/kg on days 0, 4, 8, 13 and 18.
# [5] = test system: NCI-H1650 (NSCLC) xenograft; experiment: NCI-H1650 xenograft tumor growth; type: in vivo, mouse; settings: NCI-H1650, SCID/Beige mice; for TGD, single agent / TGImax, single agent: biologics 6 or 12 mg/kg IP Q4D×6, erlotinib 100 mg/kg orally daily ×10, carboplatin 50 mg/kg IP Q4D×4 (FIG. 20A, 22A)
# Method: The potency of anti-huLRRC15 ADCs as compared to current standards of care was assessed in xenograft models with NCI-H1650 ([…]), HN5 (head and neck), EBC-1 (squamous NSCLC), NW231 (breast) and PANC1 (pancreatic) cancer cells. […] For FIG. 20A, NCI-H1650 cells (5 million cells) were implanted subcutaneously into SCID/Beige mice and tumors were randomized when they reached ˜200 mm^3 and dosed with biologics at 6 or 12 mg/kg intraperitoneally on a Q4D×6 (one dose given every 4 days for a total of 6 doses), while erlotinib was dosed orally daily for 10 days at 100 mg/kg, and carboplatin was dosed intraperitoneally Q4D×4 (one dose given every 4 days for a total of 4 doses) at 50 mg/kg.
# NCI-H1650 NSCLC cancer cells (5 million) were implanted subcutaneously into SCID/Beige mice, and mice were randomized when the tumors reached ˜200 mm^3 and dosed with biologics at 6 or 12 mg/kg intraperitoneally on a Q4D×6 (one dose given every 4 days for a total of 6 doses), while erlotinib was dosed orally daily at 100 mg/kg for 10 doses.
# NCI-H1650 NSCLC cancer cells (5 million) were implanted subcutaneously into SCID/Beige mice, and mice were randomized when the tumors reached ˜200 mm^3 and dosed on day 0 with isotype or ADC at 0.1, 0.3, or 0.6 mg/kg intraperitoneally.
# NCI-H1650 adeno NSCLC cells (5 million) were implanted subcutaneously into SCID/Beige mice, and mice were randomized when the tumors reached ˜225 mm^3 and dosed with ADC at 0.6 mg/kg or isotype antibody at 12 mg/kg intraperitoneally once on day 0.
# [6] = test system: HN5 (head and neck) xenograft; experiment: HN5 xenograft tumor growth; type: in vivo, mouse; settings: HN5, NSG mice; ADC 4.5 mg/kg IP Q4D×6; erlotinib 150 mg/kg orally daily ×10; cetuximab 3 mg/kg IP Q7D×3 (FIG. 20B)
# [7] = test system: EBC-1 (human squamous NSCLC) xenograft; experiment: EBC-1 xenograft tumor growth; type: in vivo, mouse; settings: EBC-1, SCID/Beige mice; huM25-vcMMAE-E2 at 3 mg/kg (method: biologics 6 mg/kg IP Q7D×2); method: gemcitabine 100 mg/kg IP Q3D×3, result sentence names docetaxel (FIG. 21B)
# [8] = test system: SCC-15 head and neck cancer xenograft; experiment: SCC-15 xenograft tumor growth; type: in vivo, mouse; settings: SCC-15, SCID mice; biologics 12 mg/kg IP Q7D×6; carboplatin 50 mg/kg IP Q4D×4 (FIG. 21E)
# Method: Radiation is a commonly used cytotoxic therapy in oncology. […] SCC-15 head and neck cancer cells (1 million) were implanted subcutaneously into SCID mice, and mice were randomized when the tumors reached ˜200 mm^3 and dosed with biologics at 12 mg/kg intraperitoneally on a Q4D×6 (one dose given every 4 days for a total of 6 doses), while the radiation was directed at the tumor with a single radiation dose of 15 Gy on day 0.
# SCC-15 head and neck cancer cells (1 million) were implanted subcutaneously into SCID mice, and mice were randomized when the tumors reached ˜200 mm^3 and dosed with biologics at 12 mg/kg intraperitoneally on a Q7D×6 (one dose given every 7 days for a total of 6 doses), while carboplatin was dosed intraperitoneally […] at 50 mg/kg Q4D×4 (one dose given every 4 days for a total of 4 doses).
# [9] = molecular target: T1, huLRRC15; experiment: Flow cytometry competition assay against labeled muM25 (muM25-AF488) on U118MG cells; type: binding; settings: 1 μg/mL muM25-AF488, unlabeled test antibody 0.0001-100 μg/mL
# Excerpt: Isotype control antibodies (human or mouse) were used as negative controls, and unlabeled muM25 was used as a positive control.
# In this assay, competition due to a test antibody binding to the same or a proximal epitope as the labeled reference antibody reduce binding of the reference labeled antibody.
# [10] = test system: human BM-MSC (Lonza); experiment: In vitro cell killing of human mesenchymal stem cells with TGFβ; type: cell-based; settings: human BM-MSC (Lonza) treated with 10 ng/mL TGFβ (FIG. 23B)
# [11] = EBC-1, SCID/Beige mice, biologics 3 or 6 mg/kg IP Q4D×6, method: docetaxel 7.5 mg/kg IV, result sentence names gemcitabine (FIG. 21C)
# [12] = EBC1, SCID/Beige mice, biologics 6 mg/kg IP Q7D×2, erlotinib 50 mg/kg orally daily ×10, carboplatin 50 mg/kg IP Q4D×3 (FIG. 20C)
# [13] = EBC-1, SCID mice, 0.6 mg/kg Q7D×2 (FIG. 24H)
# [14] = 0.6 mg/kg IP once on day 0 (FIG. 24G)
molecule,measurement,setting,value
"Nc1ccn([C@@H]2O[C@H](CO)[C@@H](O)C2(F)F)c(=O)n1 [gemcitabine, reference compound]","TGD, single agent",[1]; [11],171%
same,"TGImax, single agent",[1]; [11],95%
same,"TGD, single agent",[2],117%
same,"TGImax, single agent",[2],73%
same,TGImax,[3],55%
"COc1cccc2c1C(=O)c1c(O)c3c(c(O)c1C2=O)C[C@@](O)(C(=O)CO)C[C@@H]3O[C@H]1C[C@H](N)[C@H](O)[C@H](C)O1 [doxorubicin, reference compound]",TGImax,[4],65%
"C#Cc1cccc(Nc2ncnc3cc(OCCOC)c(OCCOC)cc23)c1 [erlotinib, reference compound]",TGD,[1]; [12],14%
same,TGImax,[1]; [12],27%
same,"TGD, single agent",[5],77%
same,"TGImax, single agent",[5],90%
same,TGD,[6],12%
same,TGImax,[6],23%
"CC(=O)O[C@@]12CO[C@@H]1C[C@H](O)[C@@]1(C)C(=O)[C@H](O)C3=C(C)[C@@H](OC(=O)[C@H](O)[C@@H](NC(=O)OC(C)(C)C)c4ccccc4)C[C@@](O)([C@@H](OC(=O)c4ccccc4)[C@H]21)C3(C)C [docetaxel, reference compound]","TGD, single agent","[1]; EBC-1, SCID/Beige mice, huM25-vcMMAE-E2 at 3 mg/kg (method: biologics 6 mg/kg IP Q7D×2), method: gemcitabine 100 mg/kg IP Q3D×3, result sentence names docetaxel (FIG. 21B)",48%
same,"TGImax, single agent",[7],77%
"N.N.O=C([O-])C1(C(=O)[O-])CCC1.[Pt+2] [carboplatin, reference compound]",TGD,[1]; [12],43%
same,TGImax,[1]; [12],39%
same,"TGD, single agent",[5],77%
same,"TGImax, single agent",[5],56%
same,"TGD, single agent",[8],33%
same,"TGImax, single agent",[8],56%
B1,competition with labeled muM25 for binding cells expressing huLRRC15,[9],do not inhibit
B2,TGD,[1]; [13],> 600%
same,TGImax,[1]; [13],91%
same,TGD,[5]; [14],> 388%
same,TGImax,[5]; [14],95%
same,cell killing effect relative to isotype-PBD-DAR2 at the same doses,[10],higher cell killing effect
